{
  "source": "patent US20250154201A1",
  "about": "“PEPTIDE BINDING TO MESOTHELIN, AND USE THEREOF” (KYUNGPOOK NATIONAL UNIVERSITY INDUSTRY-ACADEMIC COOPERATION …, priority 2022, published 2025)",
  "key": {"AsPC-1 tumor": {"tested_on": "AsPC-1 tumor", "assay": "tumor homing of peptides in mice", "format": "in vivo, nude mice", "details": "TAMRA-labeled, intravenous, 6 hours circulation", "experimental": "Pancreatic cancer cell line AsPC-1 cells (1×10^7 cells) were implanted under the skin of nude mice, left until the tumor size reaches about 100 mm^3, and then intravenously injected with 100 μl of 1 mM peptides labeled with a TAMRA fluorescence reagent, followed by circulation for 6 hours. Tumors and organs (liver, lung, and kidney) were separated and treated with paraformaldehyde for fixation and preparation of cryosections. The prepared cryosections were observed under a fluorescence microscope.\nPancreatic cancer cell line AsPC-1 cells (1×10^7 cells) were implanted under\nthe skin of nude mice, left until the tumor size reached about 100 mm^3, and then intravenously injected with MSLN-pep labeled with the TAMRA fluorescence reagent and control peptide (Ctrl-pep), followed by circulation for 6 hours. The tumor and control organs were separated, and cryosections were prepared, followed by observation under a fluorescence microscope."}, "in vitro": {"assay": "in vitro", "details": "human", "experimental": "Pancreatic cancer cell line AsPC-1 cells (5×10^3 cells/well in 96-well plates) were cultured in 1% serum medium with various concentrations of MSLN-pep peptide that specifically binds to mesothelin, NSSSVDK control peptide (Ctrl-pep), R7-KLA peptide that induces apoptosis, Abraxane, gemcitabine, and PBS at 37° C. for 24 and 48 hours. Afterwards, CCK-8 Kit (Dojindo, Kumamoto, Japan) reagent was treated, and a reaction was carried out at 37° C. for 2 hours to evaluate cytotoxicity.\nTo determine whether there is cytotoxicity when MSLN-pep binds specifically to mesothelin, the peptide was treated to the pancreatic cancer cell line AsPC-1 at concentrations of 0, 25, 50, 100, and 200 μM, and cell viability was checked for 24 and 48hours."}, "[1]": {"tested_on": "AsPC-1 cells expressing mesothelin", "assay": "binding to AsPC-1 cells after mesothelin siRNA (confocal immunofluorescence and flow cytometry)", "format": "cell-based, human", "details": "for specific binding (flow cytometry): 25 μM MSLN-pep", "experimental": "Mesothelin-specific siRNA (M-siRNA) and negative control siRNA (C-siRNA) were purchased from Bioneer and transfected with Lipofectamine RNAiMAX transfection reagent (Invitrogen) into AsPC-1, a pancreatic cancer cell line. After 24 hours of transfection, the media were replaced with a medium containing serum, followed by culture for an additional 24 hours.\nAfter AsPC-1 cells were cultured for 24 hours, for suppression of mesothelin expression, transfection followed with C-siRNA, a non-specific siRNA, as well as M-siRNA, a mesothelin-specific siRNA. To detect the silencing of the mesothelin gene, the group was divided into one without treatment of siRNA, one with treatment of 100 nM C-siRNA, and one with treatment of 100 nM and 200 nM M-siRNA. Mesothelin antibody and MSLN-pep were then treated by 10 μM and 25 μM, respectively. Further, the results were identified by means of confocal microscopy via immunofluorescence analysis (FIG. 6A). […] Flow cytometry was performed to determine the expression level of mesothelin when siRNA was not treated to AsPC-1 cells and the expression level of mesothelin after C-siRNA and M-siRNA were treated, of which values were expressed in % binding with the mesothelin antibody and the mean fluorescence intensity (MFI). […] As a result of performing flow cytometry to determine the difference between the binding of 25 μM MSLN-pep when siRNA was not treated to AsPC-1 cells expressing mesothelin and the binding of 25 μM MSLN-pep after treating with C-siRNA and M-siRNA, when treated with no siRNA or treated with 100 nM C-siRNA, the specific binding of 25 μM MSLN-pep was approximately 78%, and when treated with 100 nM and 200 nM M-siRNA, it was approximately 15%. This series of results reveal the degree of mesothelin expression and the reduction of mesothelin expression when M-siRNA is treated. […] In brief, it was determined that MSLN-pep specifically binds to cells expressing mesothelin."}, "[2]": {"tested_on": "mesothelin-expressing pancreatic cancer cell lines AsPC-1, PANC-1, BxPC-3, and MiaPaCa-2", "assay": "immunofluorescence binding of MSLN-pep to pancreatic cancer cell lines", "format": "cell-based, human", "details": "10 μM and 25 μM MSLN-pep", "description": "Taken together, it was found via immunofluorescence analysis that MSLN-pep specifically binds to mesothelin."}, "[3]": {"tested_on": "PANC-1 and AsPC-1 cell lines", "assay": "analysis of migration (24-transwell)", "format": "cell-based, human", "details": "24 hours", "experimental": "PANC-1 and AsPC-1 cell lines were cultured using DMEM and RPMI-1640 media with 10% FBS added respectively in the upper chamber of 24-transwell at a concentration of 2×10^4 cells per well. After 24 hours, all the media in the upper chamber of 24-transwells were removed and replaced with DMEM and RPMI-1640 media without addition of 10% FBS to inhibit migratability of cell lines, so as to be in a starvation state. After 24 hours, the experimental group was added with 10% FBS in the lower chamber, and the control was added with 0% FBS in the lower chamber to observe migratability. 3% ACN, 200 μM control peptide (Ctrl-pep), MSLN-pep 25. For 50, 100, and 200 μM groups, the media in the upper chamber of 24-Transwell were removed, each drug was treated by concentration, and 10% FBS was treated in the lower chamber. Each group was cultured at 37° C. for 24 hours, and then the cells were photographed (original magnification, ×100) by concentration of each peptide. Cells were stained with crystal violet (0.1%), and the ImageJ, a computer program, was used for quantitative evaluation.\nAfter pancreatic cancer cell lines PANC-1 and AsPC-1 were cultured in 24-transwells, all cells were starved for 24 hours to inhibit cell growth, and then treatment was performed in divided groups of 10% FBS, 0% FBS, 3% ACN+10% FBS, 200 μM NSSSVDK+10% FBS, 25 μM MSLN-pep+10% FBS, 50 μM MSLN-pep+10% FBS, 100 μM MSLN-pep+10% FBS, and 200 μM MSLN-pep+10% FBS."}},
  "data": [
    {"smiles": "CC[C@H](C)[C@@H]1NC(=O)[C@H]([C@@H](C)O)NC(=O)[C@@H](N)CSSC[C@@H](C(=O)O)NC(=O)[C@H]([C@@H](C)O)NC(=O)[C@H](CC(C)C)NC(=O)[C@H](CO)NC(=O)[C@H](Cc2c[nH]c3ccccc23)NC(=O)[C@H](CC(C)C)NC1=O", "note": "[MSLN-pep]", "values": [
      {"measurement": "targeting to control organs (fluorescence microscopy of cryosections)", "setting": "AsPC-1 tumor; liver, lungs, kidneys", "value": "barely observed"},
      {"measurement": "targeting to tumor tissue (fluorescence microscopy of cryosections)", "setting": "AsPC-1 tumor; tumor tissue", "value": "observed at a higher level compared to the control"},
      {"measurement": "viability at 200 µM", "setting": "in vitro", "value": "~80", "unit": "%"},
      {"measurement": "specific binding (flow cytometry)", "setting": "[1]; 100 nM and 200 nM M-siRNA", "value": "approximately 15%"},
      {"measurement": "specific binding (flow cytometry)", "setting": "[1]; no siRNA or 100 nM C-siRNA", "value": "approximately 78%"},
      {"measurement": "specific binding to mesothelin (confocal immunofluorescence)", "setting": "[1]; 25 μM compared to 10 μM", "value": "higher specific binding to mesothelin"},
      {"measurement": "specific binding (confocal immunofluorescence)", "setting": "[1]; M-siRNA 100 nM and 200 nM", "value": "decreased with the decrease of mesothelin expression"},
      {"measurement": "specific binding (immunofluorescence)", "setting": "[2]", "value": "specific binding of MSLN-pep even at 10 μM with the further increase at 25 μM"},
      {"measurement": "migratability compared to treatment of 10% FBS", "setting": "[3]; 25 μM + 10% FBS", "value": "no difference in the migratability and invasiveness"},
      {"measurement": "migratability", "setting": "[3]; 50, 100 and 200 μM + 10% FBS", "value": "suppressed with increasing concentrations of MSLN-pep"}
    ]}
  ]
}
